Patent US8252737B2, “Antimicrobial peptides and methods of use” (priority 2004, dated 2012)
Values after ≈ are worked out from the molar mass of the structure shown.

Tests used:
human erythrocytes [1] = test: Hemolytic activity (MHC), Protocol A, 12 hours; settings: incubation for 12 hours at 37° C. (Tables 7 and 8)
Procedure: (§1) Measurement of Hemolytic Activity—Protocol A: Peptide samples were added to 1% human erythrocytes in phosphate buffered saline (0.08M NaCl; 0.043M Na2PO4; 0.011M KH2PO4) and reactions were incubated at 37° C. for 12 hours in microtiter plates. Peptide samples were diluted 2 fold in order to determine the concentration that produced no hemolysis. […] Hemoglobin release was determined spectrophotometrically at 562 nm. The hemolytic titer was the highest 2-fold dilution of the peptide that still caused release of hemoglobin from erythrocytes. The control for no release of hemoglobin was a sample of 1% erythrocytes without any peptide added. […] Peptide samples were diluted 2 fold in order to determine the concentration that produced no hemolysis. […] Hemoglobin release was determined spectrophotometrically at 570 nm. The hemolytic titer was the highest 2-fold dilution of the peptide that still caused release of hemoglobin from erythrocytes. The control for no release of hemoglobin was a sample of 1% erythrocytes without any peptide added.

[2] = Circular dichroism spectroscopy of helical structure (benign buffer and 50% TFE); type: physicochemical; settings: 25° C.
Procedure: To determine the secondary structure of peptides in different environments, circular dichroism (CD) spectra of the peptide analogs were measured under physiologically related pH and ionic strength (100 mM KCl, 50 mM aq. PO4, pH 7 referred to as benign conditions) and also in 50% TFE to mimic the hydrophobic environment of the membrane. […] On the non-polar face, the native L-Val residue was critical in maintaining α-helical structure. […] Even the substitution with L-Ala, which is known to have the highest α-helical propensity of all 20 amino acids (34), could not stabilize the α-helical structure. […] It is noteworthy that, on the non-polar face, the magnitude of the helical content of L-peptides in benign buffer was related to the hydrophobicity of the substituting amino acids, i.e., NLL>NVL>NAL>NSL, NKL, again showing the importance of hydrophobicity on the non-polar face in maintaining the α-helical structure. […] However, whether L- or D-substitutions were made on the non-polar face, high helical structure could be induced by the hydrophobic environment of 50% TFE, a mimic of the membrane's hydrophobicity and α-helix inducing ability (Table 3).
To determine the secondary structure of the D-enantiomeric peptides in different environments, CD spectra of the peptide analogs were measured under benign conditions (100 mM KCl, 50 mM KH2PO4/K2HPO4, pH 7.4, referred to as KP buffer) and also in 50% trifluoroethanol (TFE) to mimic the hydrophobic environment of the membrane. […] However, in the presence of 50% TFE, all three L-peptides were fully folded α-helical structures with similar ellipticities and helicity (Table 4).
Characterization of Helical Structure—The mean residue molar ellipticities of peptides were determined by circular dichroism (CD) spectroscopy, using a Jasco J-720 spectropolarimeter (Jasco, Easton, Md.), at 25° C. under benign conditions (50 mM KH2PO4/K2HPO4/100 mM KCl, pH 7), as well as in the presence of an α-helix inducing solvent, 2,2,2-trifluoroethanol (TFE) (50 mM KH2PO4/K2HPO4/100 mM KCl, pH 7 buffer/50% TFE). A 10-fold dilution of a ˜500 μM stock solution of the peptide analogs was loaded into a 0.02 cm fused silica cell and its ellipticity scanned from 190 to 250 nm. The values of molar ellipticities of the peptide analogs at a wavelength of 222 nm were used to estimate the relative α-helicity of the peptides.

[3] = RP-HPLC temperature profiling (hydrophobicity and self-association/dimerization parameter PA); type: physicochemical
Procedure: The retention time data for the peptides is shown in Table 5 which records retention times at 5° C., the maximal retention times and retention times at 80° C. during the temperature profiling. Temperatures of 5° C. and 80° C. were the lower and upper temperature limits of temperature profiling in RP-HPLC, representing dimerization of the peptides at 5° C. and the monomerization of peptides at 80° C. due to dissociation of the dimers. The maximal retention times represent the threshold points at which peptides transform from dimeric to monomeric form. Among the non-polar face substituted peptides, peptides with more hydrophobic substitutions (whether L- or D-amino acid substitutions) were more retained during RP-HPLC, i.e., peptides were eluted in the order of Lys, Gly, Ser, Ala, Val and Leu (Table 5). In addition, on the non-polar face, the L-analogs were always more retained than the D-diastereomers (Table 5, FIG. 5). […] In contrast, on the polar face, the elution order of peptides was not correlated with the order of amino acid side-chain hydrophobicity, e.g., PAL and PSL were more retained than PVL (Table 5); PSD was the most retained peptide among the D-amino acid substituted analogs on the polar face (Table 5).
The ability of the D-peptides to self-associate was determined by RP-HPLC temperature profiling. […] As expected, L- and D-peptide enantiomers were totally inseparable over this temperature range, since each pair of peptides is identical in sequence and must adopt identical conformations on interacting with the reversed-phase matrix, whether in an all-L- or all-D-conformation. RP-HPLC retention behavior has been frequently utilized to represent overall peptide hydrophobicity (53, 26). In the present study, the hydrophobicity of the three peptide pairs is in the order V681/D-V681>[…]>NKL/D-NKD (Table 4), which agrees with the change in hydrophobicity of the substitutions at position 13 in order of the most hydrophobic to the least hydrophobic amino acid residue (Val in V681>Ala in NA>Lys in NK) (54). […] For example, the retention times of peptides V681/D-V681 increase with increasing temperature (up to ˜30° C.) followed by a retention time decrease with a further temperature increase. […] Since peptide C is a monomeric random coil peptide in both aqueous and hydrophobic media, its retention behavior over the temperature range 5° C. to 80° C. represents only general temperature effects on peptide retention behavior, i.e., a linear decrease in peptide retention time with increasing temperature due to greater solute diffusivity and enhanced mass transfer between the stationary and mobile phases at higher temperatures (55). Thus, after normalization to the retention times of peptide C, the retention behavior of the peptides represents only peptide self-association ability. Note that the higher the PA value, the greater the self-association ability. […] From Table 4, it is also clear that the peptide retention times at 80° C. are dramatically lower than those at 5° C.
Elution times during RP-HPLC have frequently been utilized as a measure of relative hydrophobicity of peptide analogs (26, 31). In the current study, peptide analogs differed only by a single amino acid substitution on either the non-polar face or the polar face of V681; thus, the retention time data in Table 5 can be considered to reflect the hydrophobicity difference between peptide analogs. In order to more easily visualize the variation in hydrophobicity of the peptide analogs, the retention time data in Table 5 were normalized relative to that of the native peptide V681 at 5° C. and 80° C., respectively. Hydrophobicity relative to the native peptide V681 indicates an increase or decrease of the apparent peptide hydrophobicity with the different amino acid substitutions on the polar or non-polar face. […]

[4] = test system: E. coli (UB 1005 wt and DC2 abs)
Procedure: (§2) The geometric mean MIC values from 6 microbial strains in this table were calculated to provide an overall evaluation of antimicrobial activity against gram-negative bacteria.
(§3) Measurement of Antimicrobial Activity—Minimal inhibitory concentrations (MICs) were determined using a standard microtiter dilution method in LB (Luria-Bertani) no-salt medium (10 g of tryptone and 5 g of yeast extract per liter). Briefly, cells were grown overnight at 37° C. in LB and diluted in the same medium. […] Plates were incubated at 37° C. for 24 hours and MICs determined as the lowest peptide concentration that inhibited growth. Alternatively, minimal inhibitory concentrations were determined using a standard microtiter dilution method in a Mueller-Hinton (MH) medium. Briefly, cells were grown overnight at 37° C. in MH broth and diluted in the same medium. […] Plates were incubated at 37° C. for 24 hours and MICs determined as the lowest peptide concentration that inhibited growth. However, for MIC determination of Pseudomonas aeruginosa clinical isolates, brain heart infusion (BH1) medium was used instead of MH broth. In addition, the bacteria were diluted to a final inoculum of 1×10^6 colony-forming units/ml.

[5] = C610 abs
Procedure: as §2, §3

P. aeruginosa H187 wt = test system: P. aeruginosa H187 wt
Procedure: as §2, §3

S. typhimurium C610 abs = settings: C610 abs
Procedure: as §2, §3

human erythrocytes [6] = test: Hemolytic activity (MHC), Protocol B, 18 hours; settings: for MHC (μg/ml) hRBC: maximal peptide concentration with no hemolysis after 18 hours
Procedure: In order to evaluate the biological activities of the D-enantiomeric peptides, namely D-NAL and D-NKD, the hemolytic activity of the peptides against human erythrocytes was determined as the maximal peptide concentration that produces no hemolysis after 18 hours of incubation at 37° C.
as §1

[7] = test system: Staphylococcus epidermidis
gram-negative bacteria = test: MIC, microtiter dilution, Gram-negative bacteria (geometric mean of 6 strains); type: cell-based; settings: geometric mean of MIC values from all 6 Gram-negative strains of Table 11
Procedure: as §2
In Table 11, geometric mean MIC was calculated to provide an overall view of antimicrobial activity of the peptides against Gram-negative bacteria and was also used to calculate the therapeutic index.
as §3

[8] = test system: Pseudomonas aeruginosa strains
Procedure: Pseudomonas aeruginosa strains used in this study are a diverse group of clinical isolates from different places in the world. […] The geometric mean MIC values from six Pseudomonas aeruginosa strains were calculated to provide an overall evaluation of antimicrobial activity of these peptides against Pseudomonas aeruginosa. Fold improvement was calculated by comparing the geometric mean MIC value of each peptide to that of the parent peptide V681.
as §3
For the Leu-substituted peptides, the hemolytic activity against human erythrocytes was determined as the maximal peptide concentration that produces no hemolysis after 18 hours of incubation at 37° C. Antimicrobial activity of the peptides was determined on a diverse group of Pseudomonas aeruginosa clinical isolates. […] The geometric mean MIC values from six Pseudomonas strains in Table 14 were calculated to provide an overall evaluation of antimicrobial activity of the peptides with different hydrophobicities.

E. faecalis = test system: E. faecalis
Procedure: as §3

gram-positive bacteria = test system: gram-positive bacteria
Procedure: as §3

With Ac-KWKSFLKTFKVAVKTVLHTALKAISS-NH2 [PVL] the “minimal hemolytic concentration (MHC)” value (human erythrocytes [1]) was 7.8 µg/mL, the “% helix 50% TFE” value ([2]; 50% TFE, relative to NAL in 50% TFE) was 80% and the “[θ]222 Benign” value ([2]; benign buffer (100 mM KCl, 50 mM PO4 pH 7.0)) was −7,550 deg · cm^2 · dmol^−1. For the same compound, the “[θ]222 50% TFE” value ([2]; benign buffer diluted 1:1 (v/v) with TFE) was −23,050 deg · cm^2 · dmol^−1, the “% helix Benign” value ([2]; benign buffer, relative to NAL in 50% TFE) was 26% and the “tR (min) 5° C.” value ([3]; RP-HPLC retention time at 5° C. during temperature profiling (measure of hydrophobicity)) was 47.83 min. For the same compound, the “tR (min) 80° C.” value ([3]; RP-HPLC retention time at 80° C. during temperature profiling) was 46.18 min, the “tR (min) Max” value ([3]; maximal RP-HPLC retention time during temperature profiling 5-80° C.) was 49.93 min and the “PA (min) association parameter” value ([3]; maximal retention time difference relative to control peptide C within 5-80° C.) was 3.91 min. The “ΔtR (X-PSL) (min) 5° C.” value ([3]; polar face substitutions, retention time difference relative to native peptide V681 (PSL) at 5° C., relative hydrophobicity) was -0.27 min and the “ΔtR (X-PSL) (min) 80° C.” value ([3]; polar face substitutions, retention time difference relative to native peptide V681 (PSL) at 80° C., relative hydrophobicity) was 0.35 min.
In the case of `CC[C@@H](C)[C@@H](NC(=O)[C@@H](C)NC(=O)[C@@H](CCCCN)NC(=O)[C@@H](CC(C)C)NC(=O)[C@@H](C)NC(=O)[C@H](NC(=O)[C@@H](Cc1c[nH]cn1)NC(=O)[C@@H](CC(C)C)NC(=O)[C@H](NC(=O)[C@H](NC(=O)[C@@H](CCCCN)NC(=O)[C@H](NC(=O)[C@@H](C)NC(=O)[C@@H](CO)NC(=O)[C@@H](CCCCN)NC(=O)[C@@H](Cc1ccccc1)NC(=O)[C@H](NC(=O)[C@@H](CCCCN)NC(=O)[C@@H](CC(C)C)NC(=O)[C@@H](Cc1ccccc1)NC(=O)[C@@H](CO)NC(=O)[C@@H](CCCCN)NC(=O)[C@@H](Cc1c[nH]c2ccccc12)NC(=O)[C@@H](CCCCN)NC(C)=O)[C@H](C)O)C(C)C)[C@H](C)O)C(C)C)[C@H](C)O)C(=O)N[C@H](CO)C(=O)N[C@H](CO)C(N)=O` [D-V681], the “MIC (μg/ml) E. coli C500 abs” value ([4]; antibiotic sensitive strain) is reported as 3.1 µg/mL (≈ 1.05 µM), the “MIC (μg/ml) E. coli C498 wt” value ([4]; wild-type lab strain) is reported as 6.3 µg/mL (≈ 2.13 µM) and the “MIC (μg/ml) St C587 wt” value [5] is reported as 12.5 µg/mL (≈ 4.22 µM). For the same compound, the “MIC (μg/ml) Pa H188 abs” value (P. aeruginosa H187 wt) was 6.3 µg/mL (≈ 2.13 µM), the “MIC (μg/ml) Pa H187 wt” value (P. aeruginosa H187 wt; H187 wt) was 6.3 µg/mL (≈ 2.13 µM) and the “MIC (μg/ml) St C610 abs” value (S. typhimurium C610 abs) was 6.3 µg/mL (≈ 2.13 µM). The “MHC (μg/ml) hRBC” value (human erythrocytes [6]; Table 11) was 7.8 µg/mL, the “MHC (μg/ml) hRBC” value (human erythrocytes [6]; Table 12) was 7.8 µg/mL and the “Hemolytic activity MHC” value (human erythrocytes [6]; red cells of human, 18 h) was 7.8 µg/mL. The “MIC (μg/ml) S. epidermidis C621 wt” value [7] was 1.6 µg/mL (≈ 0.54 µM), the “MIC (μg/ml) GM” value (gram-negative bacteria) was 6.3 µg/mL (≈ 2.13 µM) and the “MIC PAK” value ([8]; strain PAK) was 31.3 µg/mL (≈ 10.6 µM). The “MIC PAO 1” value ([8]; strain PAO 1) was 15.6 µg/mL (≈ 5.27 µM), the “MIC (μg/ml) B. subtilis C971 wt” value (Bacillus subtilis) was 1.6 µg/mL (≈ 0.54 µM) and the “MIC (μg/ml) C. xerosis C875 wt” value (Corynebacterium xerosis) was 3.1 µg/mL (≈ 1.05 µM). For the same compound, the “MIC (μg/ml) S. aureus 623 methR” value (Staphylococcus aureus; methicillin-resistant clinical strain) was 6.3 µg/mL (≈ 2.13 µM), the “MIC (μg/ml) S. aureus 622 wt” value (Staphylococcus aureus; wild type strain) was 6.3 µg/mL (≈ 2.13 µM) and the “MIC (μg/ml) E. faecalis C625 wt” value (E. faecalis) was 6.3 µg/mL (≈ 2.13 µM). For the same compound, the “MIC (μg/ml) GM” value (gram-positive bacteria) was 3.5 µg/mL (≈ 1.18 µM).
